Calls of active or inactive are those of the source. The calls are words filed in the database; no cut-off is given here.
Columns and labels:
[1] = Oral bioavailability in rat; assay type: ADME, organism-based; conditions: in vivo
[2] = Unbound plasma clearance in po dosed rat; assay type: ADME, organism-based; conditions: in vivo
Salmonella typhimurium [3] = assay: Genotoxicity in Salmonella typhimurium TA97a in presence of rat s9 fraction by Ames test; assay type: toxicity, organism-based; conditions: salmonella enterica subsp. enterica serovar typhimurium
Rattus norvegicus = assay: Antiarthritic activity in collagen-induced arthritis rat model at 3 mg/kg, po administered qd; assay type: functional, organism-based
Salmonella typhimurium [4] = assay: Genotoxicity in Salmonella typhimurium TA97a by Ames test; assay type: toxicity, organism-based; conditions: salmonella enterica subsp. enterica serovar typhimurium
[5] = target: T1, Tyrosine-protein kinase SYK (Homo sapiens, UniProt P43405); assay: Inhibition of GST-tagged full length human SYK (1 to 635 end residues) expressed in baculovirus expression system preincubated for 10 mins followed by Blk/Lyntide substrate and ATP addition measured after 45 mins TR-FRET assay
[6] = target: T1, Tyrosine-protein kinase SYK; assay: Inhibition of GST-tagged full length human SYK (1 to 635 end residues) expressed in baculovirus expression system at 10 uM preincubated for 10 mins followed by Blk/Lyntide substrate and ATP addition measured after 45 mins TR-FRET assay relative to control

Row | CL free [2] | Compound | Activity (Salmonella typhimurium [3]) | further results
1 | 255 mL/min/kg | NC(=O)c1ncc(N[C@@H]2CCCC[C@@H]2N)nc1-c1cc2ccccc2[nH]1 | Non-Toxic | bioavailability [1]: 19%
2 | – | C[C@H](N)CNc1cnc(C(N)=O)c(-c2cc3ccccc3o2)n1 | Non-Toxic | –
3 | – | C[C@H](N)CNc1cnc(C(N)=O)c(-c2cnn(C)c2)n1 | Non-Toxic | –
4 | 710 mL/min/kg | Cc1cc(C)nc(Nc2cc(N[C@@H]3CCCC[C@@H]3N)cnc2C(N)=O)c1 | – | Activity (Rattus norvegicus): Active; Activity (Salmonella typhimurium [4]): Toxic
5 | – | NC(=O)c1ncc(N[C@@H]2CCCC[C@@H]2N)cc1/C=C/c1ccccc1 | Non-Toxic | –
6 | – | NC(=O)c1ncc(N[C@@H]2CCCC[C@@H]2N)cc1COc1ccccc1 | Non-Toxic | –
7 | – | C[C@H](N)CNc1cnc(C(N)=O)c(-c2cc3ccccc3[nH]2)n1 | Non-Toxic | –
8 | – | NC(=O)c1ncc(N[C@@H]2CCCC[C@@H]2N)cc1C#Cc1ccccc1 | Non-Toxic | –
9 | 100 mL/min/kg | COc1cccc2[nH]c(-c3nc(N[C@@H]4CCOC[C@@H]4N)cnc3C(N)=O)cc12 | Non-Toxic | –
10 | – | Cn1cc(-c2cc(N[C@@H]3CCCC[C@@H]3N)cnc2C(N)=O)cn1 | Non-Toxic | IC50 [5]: > 10 µM; inhibition [6]: 9%
